Laboratory results reported in PubChem BioAssay AID1918947 (Molecular Pharmacology Branch, DTP, NCI, 2023).
Where “and” joins values, the source holds several entries; their conditions need not be identical. Equal entries are not always repeated.

Test system: A498 complex spheroid viability
Assay: Anticancer human tumor A498 cell line growth inhibition;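 further: spheroids exposed to agents for seven days before readout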;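 on viability, T/C: 100% = DMSO vehicle-treated spheroids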
Settings: for viability, T/C: stronger effect = lower value
In short: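 Multicellular complex spheroids of tumor cells with human endothelial cells (HUVEC) and mesenchymal stem cells; the LSD1 inhibitor iadademstat was combined with standard-of-care or investigational agents. Top concentration at or near clinical Cmax, half-log dilutions; final DMSO ≤0.25%.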

[1] = curve of first compound, second compound 0.1 µM
[2] = curve of first compound, second compound 0.316 µM
[3] = curve of first compound, second compound 1 µM
[4] = curve of first compound, second compound 3.16 µM
[5] = curve of first compound, second compound 10 µM
[6] = second compound 0.1 µM, first compound 0.00949 µM
[7] = second compound 0.1 µM, first compound 0.03 µM
[8] = second compound 0.1 µM, first compound 0.0949 µM
[9] = second compound 0.1 µM, first compound 0.3 µM
[10] = second compound 0.316 µM, first compound 0.00949 µM
[11] = second compound 0.316 µM, first compound 0.03 µM
[12] = second compound 0.316 µM, first compound 0.0949 µM
[13] = second compound 0.316 µM, first compound 0.3 µM
[14] = second compound 1 µM, first compound 0.00949 µM
[15] = second compound 1 µM, first compound 0.03 µM
[16] = second compound 1 µM, first compound 0.0949 µM
[17] = second compound 1 µM, first compound 0.3 µM
[18] = second compound 3.16 µM, first compound 0.00949 µM
[19] = second compound 3.16 µM, first compound 0.03 µM
[20] = second compound 3.16 µM, first compound 0.0949 µM
[21] = second compound 3.16 µM, first compound 0.3 µM
[22] = second compound 10 µM, first compound 0.00949 µM
[23] = second compound 10 µM, first compound 0.03 µM
[24] = second compound 10 µM, first compound 0.0949 µM
[25] = second compound 10 µM, first compound 0.3 µM
[26] = second compound 0.1 µM, first compound 0.00316 µM
[27] = second compound 0.1 µM, first compound 0.01 µM
[28] = second compound 0.1 µM, first compound 0.0316 µM
[29] = second compound 0.1 µM, first compound 0.1 µM
[30] = second compound 0.316 µM, first compound 0.00316 µM
[31] = second compound 0.316 µM, first compound 0.01 µM
[32] = second compound 0.316 µM, first compound 0.0316 µM
[33] = second compound 0.316 µM, first compound 0.1 µM
[34] = second compound 1 µM, first compound 0.00316 µM
[35] = second compound 1 µM, first compound 0.01 µM
[36] = second compound 1 µM, first compound 0.0316 µM
[37] = second compound 1 µM, first compound 0.1 µM
[38] = second compound 3.16 µM, first compound 0.00316 µM
[39] = second compound 3.16 µM, first compound 0.01 µM
[40] = second compound 3.16 µM, first compound 0.0316 µM
[41] = second compound 3.16 µM, first compound 0.1 µM
[42] = second compound 10 µM, first compound 0.00316 µM
[43] = second compound 10 µM, first compound 0.01 µM
[44] = second compound 10 µM, first compound 0.0316 µM
[45] = second compound 10 µM, first compound 0.1 µM

For `CCc1c2c(nc3ccc(O)cc13)-c1cc3c(c(=O)n1C2)COC(=O)[C@]3(O)CC` + NC1CCC(NC2CC2c2ccccc2)CC1, the IC50 [1] was < 0.949 nM, the IC50 [2] was < 0.949 nM and the IC50 [3] was < 0.949 nM. The IC50 [4] was < 0.949 nM, the IC50 [5] was < 0.949 nM and the viability, T/C (second compound 0.1 µM, first compound 0.000949 µM) was 44.1%. The viability, T/C (second compound 0.1 µM, first compound 0.003 µM) was 34.7%, the viability, T/C [6] was 26.7% and the viability, T/C [7] was 3.44%. For the same molecule, the viability, T/C [8] was 0.09%, the viability, T/C [9] was 0.11% and the viability, T/C (second compound 0.316 µM, first compound 0.000949 µM) was 46%. The viability, T/C (second compound 0.316 µM, first compound 0.003 µM) was 33%, the viability, T/C [10] was 26.4% and the viability, T/C [11] was 3.19%. It also gave a viability, T/C [12] of 0.19%, a viability, T/C [13] of 0.12% and a viability, T/C (second compound 1 µM, first compound 0.000949 µM) of 47.1%. It also gave a viability, T/C (second compound 1 µM, first compound 0.003 µM) of 37.2%, a viability, T/C [14] of 25.6% and a viability, T/C [15] of 3.37%. It also gave a viability, T/C [16] of 0.22%, a viability, T/C [17] of 0.47% and a viability, T/C (second compound 3.16 µM, first compound 0.000949 µM) of 44.5%. It also gave a viability, T/C (second compound 3.16 µM, first compound 0.003 µM) of 34.5%, a viability, T/C [18] of 27.7% and a viability, T/C [19] of 1.91%. It also gave a viability, T/C [20] of 0.05%, a viability, T/C [21] of 0.11% and a viability, T/C (second compound 10 µM, first compound 0.000949 µM) of 42.5%. For the same molecule, the viability, T/C (second compound 10 µM, first compound 0.003 µM) was 31%, the viability, T/C [22] was 26% and the viability, T/C [23] was 4.35%. For the same molecule, the viability, T/C [24] was 0.12% and the viability, T/C [25] was 0.17%.

For `Cn1ncnc1C1c2n[nH]c(=O)c3cc(F)cc(c23)NC1c1ccc(F)cc1` (stereo unspecified) + NC1CCC(NC2CC2c2ccccc2)CC1, the IC50 [1] was > 100 nM, the IC50 [2] was > 100 nM and the IC50 [3] was > 100 nM. For the same molecule, the IC50 [4] was > 100 nM, the IC50 [5] was > 100 nM and the viability, T/C (second compound 0.1 µM, first compound 0.000316 µM) was 84%. It also gave a viability, T/C (second compound 0.1 µM, first compound 0.001 µM) of 88.1%, a viability, T/C [26] of 82.7% and a viability, T/C [27] of 87.4%. It also gave a viability, T/C [28] of 85.1%, a viability, T/C [29] of 85.3% and a viability, T/C (second compound 0.316 µM, first compound 0.000316 µM) of 95.5%. For the same molecule, the viability, T/C (second compound 0.316 µM, first compound 0.001 µM) was 95.5%, the viability, T/C [30] was 95% and the viability, T/C [31] was 89%. It also gave a viability, T/C [32] of 85.7%, a viability, T/C [33] of 90.9% and a viability, T/C (second compound 1 µM, first compound 0.000316 µM) of 84.2%. For the same molecule, the viability, T/C (second compound 1 µM, first compound 0.001 µM) was 94.5%, the viability, T/C [34] was 87% and the viability, T/C [35] was 84.2%. It also gave a viability, T/C [36] of 78.5%, a viability, T/C [37] of 81.3% and a viability, T/C (second compound 3.16 µM, first compound 0.000316 µM) of 83.8%. The viability, T/C (second compound 3.16 µM, first compound 0.001 µM) was 85.3%, the viability, T/C [38] was 85.3% and the viability, T/C [39] was 78.5%. The viability, T/C [40] was 79.6%, the viability, T/C [41] was 74.9% and the viability, T/C (second compound 10 µM, first compound 0.000316 µM) was 77.2%. For the same molecule, the viability, T/C (second compound 10 µM, first compound 0.001 µM) was 76.8%, the viability, T/C [42] was 78.2% and the viability, T/C [43] was 74.9%. The viability, T/C [44] was 75.8% and the viability, T/C [45] was 65.3%.

With `Nc1ncn(C2CC(O)C(CO)O2)c(=O)n1` (stereo unspecified) the viability, T/C (compound 0.00316 µM) was 104% and 103%, the viability, T/C (compound 0.01 µM) was 103% and 107% and the viability, T/C (compound 0.0316 µM) was 97.1% and 92.8%. The viability, T/C (compound 0.1 µM) was 84.8% and 88.6%, the viability, T/C (compound 0.316 µM) was 68.6% and 82.9% and the viability, T/C (compound 1 µM) was 52.9% and 73.7%. For the same molecule, the IC50 (curve of compound) was > 1000 nM.

For `Nc1ncn(C2CC(O)C(CO)O2)c(=O)n1` (stereo unspecified) + NC1CCC(NC2CC2c2ccccc2)CC1, the IC50 [1] was 177 nM, the IC50 [2] was 279 nM and the IC50 [3] was 218 nM. For the same molecule, the IC50 [4] was 195 nM, the IC50 [5] was 224 nM and the viability, T/C [26] was 89.7%. For the same molecule, the viability, T/C [27] was 88.5%, the viability, T/C [28] was 88.5% and the viability, T/C [29] was 60.7%. It also gave a viability, T/C (second compound 0.1 µM, first compound 0.316 µM) of 40%, a viability, T/C (second compound 0.1 µM, first compound 1 µM) of 36.7% and a viability, T/C [30] of 93.1%. The viability, T/C [31] was 95.7%, the viability, T/C [32] was 90.7% and the viability, T/C [33] was 72.9%. For the same molecule, the viability, T/C (second compound 0.316 µM, first compound 0.316 µM) was 47.3%, the viability, T/C (second compound 0.316 µM, first compound 1 µM) was 40.5% and the viability, T/C [34] was 89.2%. For the same molecule, the viability, T/C [35] was 89.7%, the viability, T/C [36] was 89.2% and the viability, T/C [37] was 62.4%. The viability, T/C (second compound 1 µM, first compound 0.316 µM) was 46.4%, the viability, T/C (second compound 1 µM, first compound 1 µM) was 34.9% and the viability, T/C [38] was 82.5%. It also gave a viability, T/C [39] of 88.4%, a viability, T/C [40] of 78.4% and a viability, T/C [41] of 66.6%. The viability, T/C (second compound 3.16 µM, first compound 0.316 µM) was 38.1%, the viability, T/C (second compound 3.16 µM, first compound 1 µM) was 29.3% and the viability, T/C [42] was 78%. It also gave a viability, T/C [43] of 78.2%, a viability, T/C [44] of 79.9% and a viability, T/C [45] of 68.4%. For the same molecule, the viability, T/C (second compound 10 µM, first compound 0.316 µM) was 42.2% and the viability, T/C (second compound 10 µM, first compound 1 µM) was 31.9%.

In the case of `O=C(c1cc(Cc2n[nH]c(=O)c3ccccc23)ccc1F)N1CCN(C(=O)C2CC2)CC1`, the viability, T/C (compound 0.0316 µM) is reported as 99% and 102%, the viability, T/C (compound 0.1 µM) is reported as 108% and 105% and the viability, T/C (compound 0.316 µM) is reported as 96% and 101%. For the same molecule, the viability, T/C (compound 1 µM) was 102% and 101%, the viability, T/C (compound 3.16 µM) was 103% and 93.4% and the viability, T/C (compound 10 µM) was 88.9% and 84.9%. The IC50 (curve of compound) was > 10000 nM.

`COc1cc(C2c3cc4c(cc3C(OC3OC5COC(C)OC5C(O)C3O)C3COC(=O)C23)OCO4)cc(OC)c1O` (stereo unspecified) + NC1CC1c1ccc(-c2cccc(O)c2)cc1 was tested, and the IC50 [1] was 1800 nM, the IC50 [2] was > 3000 nM and the IC50 [3] was 1110 nM. It also gave an IC50 [4] of 296 nM, an IC50 [5] of 523 nM and a viability, T/C [6] of 75.3%. It also gave a viability, T/C [7] of 68.7%, a viability, T/C [8] of 62.1% and a viability, T/C [9] of 62.8%. The viability, T/C (second compound 0.1 µM, first compound 0.949 µM) was 58.2%, the viability, T/C (second compound 0.1 µM, first compound 3 µM) was 44.4% and the viability, T/C [10] was 87.3%. For the same molecule, the viability, T/C [11] was 74.7%, the viability, T/C [12] was 68.7% and the viability, T/C [13] was 58.6%. The viability, T/C (second compound 0.316 µM, first compound 0.949 µM) was 55.6%, the viability, T/C (second compound 0.316 µM, first compound 3 µM) was 51.3% and the viability, T/C [14] was 76.7%. For the same molecule, the viability, T/C [15] was 63%, the viability, T/C [16] was 59.9% and the viability, T/C [17] was 49.8%. For the same molecule, the viability, T/C (second compound 1 µM, first compound 0.949 µM) was 54.1%, the viability, T/C (second compound 1 µM, first compound 3 µM) was 46.5% and the viability, T/C [18] was 66.4%. It also gave a viability, T/C [19] of 53.6%, a viability, T/C [20] of 55.9% and a viability, T/C [21] of 52.2%. For the same molecule, the viability, T/C (second compound 3.16 µM, first compound 0.949 µM) was 46.1%, the viability, T/C (second compound 3.16 µM, first compound 3 µM) was 42.9% and the viability, T/C [22] was 63.5%. It also gave a viability, T/C [23] of 61.1%, a viability, T/C [24] of 57.5% and a viability, T/C [25] of 51.7%. The viability, T/C (second compound 10 µM, first compound 0.949 µM) was 47.4% and the viability, T/C (second compound 10 µM, first compound 3 µM) was 41.7%.

With `COc1cc(Nc2ncc3c(n2)-c2ccc(Cl)cc2C(c2c(F)cccc2OC)=NC3)ccc1C(=O)O` the viability, T/C (compound 0.00316 µM) was 95.5% and 94.2%, the viability, T/C (compound 0.01 µM) was 84.6% and 64.9% and the viability, T/C (compound 0.0316 µM) was 76.9% and 71.9%. For the same molecule, the viability, T/C (compound 0.1 µM) was 66.4% and 62.6%, the viability, T/C (compound 0.316 µM) was 60% and 54.1% and the viability, T/C (compound 1 µM) was 50.4% and 40.4%. For the same molecule, the IC50 (curve of compound) was > 1000 nM and 381 nM.
